Data as given in patent US20130344008A1, “NONCARIOUS MATERIAL AND ANTICARIOUS AGENT CONTAINING RARE SUGAR” (priority 2006, published 2013).

Key:
[1] = system: S. mutans strain JCM5075; assay: Example 1: optical density and pH of S. mutans JCM5075 cultures in BHI broth with rare sugars, with or without sucrose; assay type: cell-based, Streptococcus mutans; details: for pH 0 hour later / pH 6 hours later / pH 8 hours later / pH 12 hours later / pH 24 hours later / Optical density (OD) 12 hours later / suppression of OD increase compared with no addition: BHI broth; for Optical density (OD) 12 hours later: OD600; for suppression of the pH reduction: also with 1% sucrose addition; for suppression of OD increase compared with no addition: FIG. 2 / Table 1
Excerpt: S. mutans strains characteristically form insoluble glucan on addition of sucrose, to generate acids and reduce the pH of the culture medium, which is considered to cause decalcification of teeth on dental surface to form decayed teeth (the reason why the strains are designated bacteria causing decayed teeth). JCM 5075 of S. mutans strains and the Brain Heart Infusion (BHI) broth were used to assay the optical density (the increase of the number of the bacterial cells) and the pH change in individual rare sugar solutions with or without sucrose added. As the rare sugars, there were used D-fructose, L-fructose, D-sorbose, L-sorbose, D-psicose, L-psicose, D-tagatose and L-tagatose. The rare sugars used were supplied from the Rare Sugar Research Center, the National University Corporation Kagawa University.
The strain JCM5075 thawed from −80° C. stock was cultured for 48 hours, and was adjusted to OD 0.3. 100 μl of the resulting culture was added to each 2-ml portion of the BHI broths under individual conditions, to assay the optical density and the pH 24 hours later (observation with naked eyes and absorbance: OD600).
After collecting a part of the liquid culture and centrifuging the culture, the pH of the resulting supernatant was measured with a pH meter. The results are shown in Table 2 (0, 6, 8, 12 and 24 hours after the addition of the bacteria to the BHI broth) and FIG. 3.

[2] = system: S. mutans strain MT 8148 (JCM5175); assay: Example 2: bacterial growth (OD 660 nm) and pH of S. mutans culture in phenol red broth with 1% test substance; assay type: cell-based, Streptococcus mutans; details: PRB broth, 37° C., 48 hours later; for OD: bacterial growth, absorbance at 660 nm
Protocol: D-Psicose and L-psicose were used to assay the actions thereof against S. mutans. D-Psicose and L-psicose were supplied from the Rare Sugar Research Center, the National University Corporation Kagawa University. The S. mutans strain MT 8148 (JCM5175) was plated in a Brain Heart Infusion broth supplemented with agar for culturing at 37° C. for 48 hours. The liquid culture was inoculated in a fresh Brain Heart Infusion broth, for culturing at 37° C. for 24 hours. The liquid culture was inoculated in a phenol red broth (PRB broth) containing a test substance at 1%, for culturing at 37° C.; the bacterial growth (absorbance at 660 nm: OD) and the pH were assayed 48 hours later. Asa control, glucose, fructose, sucrose and Xylitol were used. After culturing for a given period of time, additionally, the optical density of apart of the liquid culture was measured with an absorptiometer (OD 660 nm).

[3] = system: S. mutans strain MT 8148 (JCM5175); assay: Example 4: cariostatic test with D-psicose and catechin, pH of culture in PRB broth; assay type: cell-based, Streptococcus mutans; details: for pH: PRB broth, 20 hours later
Protocol: A cariostatic test with D-psicose was carried out. Additionally, the effect of catechins added was also examined. D-Psicose was supplied from the Rare Sugar Research Center, the National University Corporation Kagawa University. As the catechin, Polyphenon 70A of Mitsui Norin Co., Ltd. was used. The S. mutans strain MT 8148 (JCM5175) was plated in a Brain Heart Infusion broth supplemented with agar, for culturing at 37° C. for 48 hours. Further, the resulting liquid culture was inoculated in a fresh Brain Heart Infusion broth, for culturing at 37° C. for 24 hours. The liquid preculture was inoculated in a phenol red broth (PRB broth) containing sugars and catechins at the following concentrations for culturing at 37° C.; 20 hours later, the pH was measured. As a control, sucrose was used.

[4] = system: caries; details: cited from earlier work
[5] = system: S. mutans strain JCM5075; assay: Reference Example: formation of insoluble glucan with S. mutans, naked-eye observation; assay type: cell-based, Streptococcus mutans; details: sucrose added, BHI broth, anaerobic conditions, FIG. 1
Protocol: S. mutans strains characteristically form insoluble glucan on addition of sucrose, to reduce the pH of the culture medium, which is considered to cause decalcification of dental surface to form decayed teeth (the reason why the strains are designated bacteria causing decayed teeth). The S. mutans strain JCM5075 was plated in a Brain Heart Infusion (BHI) broth, for culturing under anaerobic conditions, to visually determine the bacterial growth (potency for forming insoluble glucan: optical density) with naked eyes.

[6] = system: S. mutans strain (JCM5075); assay: Example 3: pH of S. mutans culture in BHI broth with test substance after 48-hour culturing; assay type: cell-based, Streptococcus mutans; details: for pH: BHI broth, after 48-hour culturing
Protocol: Allitol and D-sorbose were used to assay the actions thereof against S. mutans. Allitol and D-sorbose were supplied from the Rare Sugar Research Center, the National University Corporation Kagawa University. The S. mutans strain (JCM5075) was plated in a Brain Heart Infusion broth containing a 10% test substance, to measure the pH of the liquid culture after 48-hour culturing. As a control, 1% sucrose and 10% Xylitol were used.

[7] = 10% test substance + 1% sucrose

O=C(CO)[C@H](O)[C@H](O)[C@H](O)CO [D-psicose]
pH 0 hour later ([1]; 5% test substance + 1% sucrose): 7.4
pH 6 hours later ([1]; 5% test substance + 1% sucrose): 7.3
pH 8 hours later ([1]; 5% test substance + 1% sucrose): 7.2
pH 12 hours later ([1]; 5% test substance + 1% sucrose): 7.2
pH 24 hours later ([1]; 5% test substance + 1% sucrose): 6.4
pH 0 hour later ([1]; 5% test substance, no sucrose): 7.4
pH 6 hours later ([1]; 5% test substance, no sucrose): 7.3
pH 8 hours later ([1]; 5% test substance, no sucrose): 7.2
pH 12 hours later ([1]; 5% test substance, no sucrose): 7.2
pH 24 hours later ([1]; 5% test substance, no sucrose): 7.0
pH 0 hour later [1, 7]: 7.3
pH 6 hours later [1, 7]: 7.2
pH 8 hours later [1, 7]: 7.2
pH 12 hours later [1, 7]: 7.2
pH 24 hours later [1, 7]: 7.1
Optical density (OD) 12 hours later ([1]; 10% test substance): 0.158
pH 0 hour later ([1]; 10% test substance, no sucrose): 7.3
pH 6 hours later ([1]; 10% test substance, no sucrose): 7.2
pH 8 hours later ([1]; 10% test substance, no sucrose): 7.2
pH 12 hours later ([1]; 10% test substance, no sucrose): 7.2
pH 24 hours later ([1]; 10% test substance, no sucrose): 7.2
suppression of the pH reduction ([1]; 24 hours later, FIG. 3): most highly suppressed the pH reduction
suppression of OD increase compared with no addition [1]: suppression of OD increase was observed
pH [2]: 5.9
OD [2]: 0.02
pH ([3]; 3.3% test substance + 0.25% sucrose): 4.4
pH ([3]; 5.0% test substance + 0.25% sucrose): 5.5
action of suppressing the pH reduction in a culture medium with addition of sucrose ([3]; D-psicose at a concentration of 5%, 0.25% sucrose): exerted an action of suppressing the pH reduction

Oc1cc(O)c2c(c1)O[C@H](c1cc(O)c(O)c(O)c1)[C@@H](O)C2 [gallocatechin]
effective concentration against caries in the test system [4]: 125 µg/mL

OC[C@H]1O[C@@](CO)(O[C@H]2O[C@H](CO)[C@@H](O)[C@H](O)[C@H]2O)[C@@H](O)[C@@H]1O [sucrose, reference compound]
formation of insoluble glucan observed with naked eyes [5]: formed insoluble glucan
pH 0 hour later ([1]; 1% sucrose alone): 7.4
pH 6 hours later ([1]; 1% sucrose alone): 7.2
pH 8 hours later ([1]; 1% sucrose alone): 7.2
pH 12 hours later ([1]; 1% sucrose alone): 6.7
pH 24 hours later ([1]; 1% sucrose alone): 4.7
pH change 24 hours later (in words) ([1]; 1% sucrose, or 10% Xylitol+1% sucrose, or 10% fructose+1% sucrose, FIG. 3): highly inclined to acidity
Optical density (OD) 12 hours later ([1]; 1% test substance): 0.060
precipitation of bacterial masses (insoluble glucan) under observation with naked eyes ([1]; addition of 1% sucrose, addition of 10% D-fructose, 24 hours later): caused the precipitation of bacterial masses (insoluble glucan)
pH ([6]; 1% sucrose (control)): 4.0
pH [2]: 3.9
OD [2]: 0.14
pH ([3]; 0.25% sucrose alone, 37° C.): 4.5

O=C(CO)[C@H](O)[C@@H](O)[C@H](O)CO [D-sorbose]
pH 0 hour later ([1]; 5% test substance + 1% sucrose): 7.3
pH 6 hours later ([1]; 5% test substance + 1% sucrose): 7.2
pH 8 hours later ([1]; 5% test substance + 1% sucrose): 7.2
pH 12 hours later ([1]; 5% test substance + 1% sucrose): 7.2
pH 24 hours later ([1]; 5% test substance + 1% sucrose): 5.0
pH 0 hour later ([1]; 5% test substance, no sucrose): 7.4
pH 6 hours later ([1]; 5% test substance, no sucrose): 7.2
pH 8 hours later ([1]; 5% test substance, no sucrose): 7.2
pH 12 hours later ([1]; 5% test substance, no sucrose): 7.2
pH 24 hours later ([1]; 5% test substance, no sucrose): 5.5
pH 0 hour later [1, 7]: 7.3
pH 6 hours later [1, 7]: 7.2
pH 8 hours later [1, 7]: 7.2
pH 12 hours later [1, 7]: 7.2
pH 24 hours later [1, 7]: 6.9
Optical density (OD) 12 hours later ([1]; 10% test substance): 0.102
pH 0 hour later ([1]; 10% test substance, no sucrose): 7.3
pH 6 hours later ([1]; 10% test substance, no sucrose): 7.2
pH 8 hours later ([1]; 10% test substance, no sucrose): 7.2
pH 12 hours later ([1]; 10% test substance, no sucrose): 7.2
pH 24 hours later ([1]; 10% test substance, no sucrose): 6.9
suppression of the pH reduction ([1]; 24 hours later, FIG. 3): pH reduction was suppressed
suppression of OD increase compared with no addition [1]: suppression of OD increase was observed
assimilability with the S. mutans strain ([6]; 10% test substance, 48-hour culturing): low assimilability
pH ([6]; 10% test substance): 5.0
